Source: patent US20260364124A1, “ANTI-C. DIFFICILE SMALL MOLECULE METABOLITES FROM DIET AND GUT MICROBIOME” (The Children's Medical Center Corporation, priority 2023, published 2026)
Entries after “also recorded” stand apart in the source; their conditions may differ.

Columns and labels:
B. uniformis = assay: In vitro aglycone liberation by wildtype B. uniformis (LC-MS); design: species or system Bacteroides uniformis ATCC 8492; details: role: product; B. uniformis culture supplemented with glycoside, after eight hours, LC-MS EIC (FIG. 2)
Source text: Comparative LC-MS EICs (Extracted Ion Chromatogram) of methanol-water extracts of bacterial cultures supplemented with each polyphenolic glycoside after eight hours are provided. The trace labeled “A” corresponds to the EIC of each glycoside, and the trace labeled “B” corresponds to the EIC of each aglycone. The portion of the trace “B” peak overlapping the trace “A” peak corresponds to the aglycone detected from fragmentation of the glycoside at the ionization source and is a technical artifact.
FIGS. 5A and 5B show microbiome-mediated polyphenol aglycone liberation. […] Step 2: Spent media was filter-sterilized. Step 3: C. difficile was grown in spent media from either vehicle or polydatin (top).
In vitro aglycone liberation: All B. uniformis strains were grown on brain-heart-infusion supplemented with hemin (50 mg/L) and vitamin K1 (0.25 mg/L) (BHIS) agar plates or in basal media (BSG; proteose peptone (20 g/L), yeast (5 g/L), NaCl (5 g/L), glucose (5 g/L), potassium phosphate dibasic (5 g/L), cysteine (0.5 g/L), hemin (50 mg/L), and vitamin K1 (0.25 mg/L). All isolates were recovered on and grown in pre-reduced media in a Coy anaerobic chamber (Coy Labs).
To assess the capacity of Bacteroides to liberate aglycones from their parent polyphenolic glycosides, B. uniformis ATCC 8492 WT and AgshD were recovered on a BHIS agar plate and incubated anaerobically at 37 °C for 48 h. A starter culture (1 mL) of BSG was inoculated with each isolate and grown for 15 h. This starter culture was then used to inoculate a BSG sub-culture (1 mL) at a final dilution of 1:10. […]
For polyphenolic glycoside and aglycone-containing samples, samples were dried under nitrogen flow and resuspended in 50 μl of methanol 50% in water. […] Samples were quantified on a QEplus mass spectrometer coupled to an Ultimate 3000 LC (Thermo fisher). […] Quantification was performed using Tracefinder (Thermo fisher), using the ratio of the area under the peak for each compound and of the internal standard, using the accurate mass of the [M−H]^− ions.

C. difficile [1] = assay: Phytochemical microbial killing assay, panel of gut bacterial pathogens; format: cell-based, Clostridioides difficile; details: 150 μM, media with glucose, growth ratio (AUC) vs vehicle, panel of gut bacterial pathogens (FIG. 3A)
Procedure: Growth is measured as the ratio of growth in media (AUC) supplemented with glucose and 150 μM glycoside or aglycone versus growth in media (AUC) supplemented with glucose and vehicle. Value>1 is representative of enhanced growth in compound and value<1 is representative of inhibition of growth in compound.
Phytochemical microbial killing assays: All gut pathogen isolates were grown on brain-heart-infusion supplemented with hemin (50 mg/L) and vitamin K1 (0.25 mg/L) (BHIS) agar plates or in basal media (BSG; proteose peptone (20 g/L), yeast (5 g/L), NaCl (5 g/L), glucose (5 g/L), potassium phosphate dibasic (5 g/L), cysteine (0.5 g/L), hemin (50 mg/L), and vitamin K1 (0.25 mg/L). Isolates were recovered on and grown in pre-reduced media in a Coy anaerobic chamber (Coy Labs). To determine the fitness effects of phloridzin hydrate (TCI), phloretin (TCI), polydatin (TCI), and resveratrol (TCI) on enteric pathogen fitness, each pathogen isolate was recovered on a BHIS agar plate and incubated anaerobically at 37 °C for 48 h. A starter culture (1 mL) of BSG was inoculated with C. difficile and grown for 15 h. […] Bacterial growth was monitored by measuring the optical density at 600 nm (OD600) of each culture in a 384 well plate with an Epoch2 spectrophotometer (BioTek Instruments) and MicroPlate stacker (Agilent BioTek) for 24 hours.

C. difficile [2] = assay: C. difficile infection (CDI) mouse model, C. difficile burden (CFU); format: in vivo, mouse (C57BL/6J) infected with Clostridioides difficile; details: infected mice; for anti-microbial effect on C. difficile in vivo: 500 μM in drinking water, CFU at day one and day two (FIG. 3C); for C. difficile burden in vivo: pure compound administered (FIGS. 6A-6B)
Procedure: (§1) FIG. 3B provides a heatmap of growth of 20 Clostridioides difficile isolates in the absence of presence of the polyphenolic glycoside polydatin or the Bacteroides liberated aglycone resveratrol. […] Growth induction or inhibition is measured as the ratio of growth in media (AUC) supplemented with glucose and 150 μM polydatin or resveratrol versus growth in media (AUC) supplemented with glucose and vehicle. Value>1 is representative of enhanced growth in compound and value <1 is representative of inhibition of growth in compound.
C. difficile infection (CDI) model: An antibiotic-treatment-induced CDI mouse model developed previously was used for the infection model. Briefly, six-to eight-week-old male and female SPF C57BL/6J WT mice were treated for three days with a mixture of antibiotics including vancomycin (0.4 mg/mL, Sigma) colistin (850 U/mL, Sigma), metronidazole (0.215 mg/mL, Sigma), gentamicin (0.035 mg/mL, RPI), and kanamycin (0.045 mg/mL, Sigma) in their drinking water. Mice were then treated with regular water for two days and then injected intraperitoneal (IP) with clindamycin (10 mg/kg, Mylan Pharmaceuticals) in normal saline. After one day, mice were gavaged with […] of C. difficile M7404 diluted in PBS. Stool was collected from mice at one day and two days post infection, and immediately taken for assessment of C. difficile infection load.
C. difficile colony-forming units (CFUs): Mouse feces were collected from mice on day one and day two of C. difficile infection. Feces were weighed and resuspended to 50 mg/mL in pre-reduced 1× PBS. CFUs were enumerated by plating multiple dilutions on pre-reduced commercial ChromID C. difficile -selective plates (Biomerieux) after incubation for 24 hours at 37 °C in an anaerobic chamber (Coy Labs).

C. difficile isolates = assay: Phytochemical microbial killing assay, diverse C. difficile isolates; format: cell-based, Clostridioides difficile
Procedure: as §1
Bacterial isolates were grown in vitro in media plus compound. Killing was measured by bacterial culture optical density (proxy for amount of bacteria in a culture).
Phytochemical microbial killing assays: All gut pathogen isolates were grown on brain-heart-infusion supplemented with hemin (50 mg/L) and vitamin K1 (0.25 mg/L) (BHIS) agar plates or in basal media (BSG; proteose peptone (20 g/L), yeast (5 g/L), NaCl (5 g/L), glucose (5 g/L), potassium phosphate dibasic (5 g/L), cysteine (0.5 g/L), hemin (50 mg/L), and vitamin K1 (0.25 mg/L). Isolates were recovered on and grown in pre-reduced media in a Coy anaerobic chamber (Coy Labs). To determine the fitness effects of phloridzin hydrate (TCI), phloretin (TCI), polydatin (TCI), and resveratrol (TCI) on enteric pathogen fitness, each pathogen isolate was recovered on a BHIS agar plate and incubated anaerobically at 37 °C for 48 h. A starter culture (1 mL) of BSG was inoculated with C. difficile and grown for 15 h. This starter culture was then used to inoculate a BSG sub-culture (1 mL) at a final dilution of 1:10. This sub-culture was grown for 3 h to an OD600~0.5 before being used to inoculate experimental cultures at a final dilution of 1:50. The experimental media consisted of a modified YCFA media (mYCFA; casitone (2.5 g/L), yeast extract (0.625 g/L), cysteine (0.5 g/L), magnesium sulfate heptahydrate (f.c. 365 μM), calcium chloride dihydrate (f.c. 610 μM), sodium bicarbonate (4 g/L), dipotassium phosphate (0.45 g/L), monopotassium phosphate (0.45 g/L), sodium chloride (0.9 g/L), sodium acetate (2.71 g/L), Hemin (50 mg/L), Vitamin K1 (0.25 mg/L), ferrous sulfate (4 μg/mL), ATCC vitamin mix (1% v/v)) supplemented with glucose (15 mM, Sigma) plus each compound (150 μM) or glucose (15 mM, Sigma) plus DMSO (0.15%, Sigma). Bacterial growth was monitored by measuring the optical density at 600 nm (OD600) of each culture in a 384 well plate with an Epoch2 spectrophotometer (BioTek Instruments) and MicroPlate stacker (Agilent BioTek) for 24 hours.

Row | SMILES | liberation of aglycone from polyphenolic glycoside (B. uniformis) | selective killing of C. difficile (C. difficile [1]) | anti-microbial effect on C. difficile in vivo (C. difficile [2]) | C. difficile burden in vivo (C. difficile [2]) | growth inhibition of Clostridioides difficile (C. difficile isolates; 150 μM, 20 C. difficile isolates, growth ratio (AUC) vs vehicle (FIG. 3B)) | killing / growth inhibition of diverse C. difficile isolates (C. difficile isolates; in vitro, media plus compound, culture optical density (FIG. 4))
1 | O=C(CCc1ccc(O)cc1)c1c(O)cc(O)cc1O [phloretin] | liberates phloretin and resveratrol from their natural prodrugs in vitro | selectively kill the enteric pathogen C. difficile; also recorded: selectively kill hypervirulent C. difficile | potent anti-microbial effects on C. difficile in vivo | decreases C. difficile burden |  | 
2 | Oc1ccc(C=Cc2cc(O)cc(O)c2)cc1 [resveratrol] | liberates phloretin and resveratrol from their natural prodrugs in vitro | selectively kill the enteric pathogen C. difficile; also recorded: selectively kill hypervirulent C. difficile | potent anti-microbial effects on C. difficile in vivo | decreases C. difficile burden | showed growth inhibition of Clostridioides difficile; also recorded: universally anti-microbial against C. difficile | kills many diverse C. difficile isolates; also recorded: showed growth inhibition of C. difficile
